In brackets after ≈: the same amount, converted by molar mass. Where two headings read alike, the source gives them in different places.
How the values were obtained:
[1] = Polymorph form conversion / solid-state stability (XRPD, VT-XRPD); assay type: physicochemical
Method: To confirm stability and suitability of Ulodesine hemi-glutarate Type A, a polymorph screening was conducted to search for other potential crystal forms and identify the most suitable form to confirm the previous findings.
Using glutarate Type A as starting material, a polymorph screening was conducted under 100 conditions through methods of anti-solvent addition, solid vapor diffusion, liquid vapor diffusion, slow evaporation, polymer-induced crystallization, temperature cycling, slurry at room temperature (RT)/50 °C and slow cooling.
X-ray powder diffraction data at variable temperature was collected at on a Malvern Panalytical Empyrean diffractometer. Flat a few milligrams of sample on a sample holder and compact it by a glass slide with protection of a piece of weighting paper. An X-ray generator of 1800 W was employed at 45 kV and 40 mA and was equipped with an X-ray tube of Cu (Kα), with the Kα2/Kα1 intensity ratio of 0.50 (1.54439 Å/1.5406 Å). Data were collected from 3° to […] (2θ) at a step size of 0.026° (2θ) with time per step of 49.7 s.
Glutarate Type B (E0007-A01-06) was only observed by heating glutarate Type A to 130 °C using X-ray powder diffractometer at variable temperature mode (VT-XRPD).
Based on the characterization results, glutarate Type C was speculated as a channel hydrate (the water molecules of a channel hydrate lie next to other water molecules of adjoining unit cell, forming channels through the crystals).
Type C was re-prepared at 100 mg in triplicate via temperature cycling slurry in anisole/MeOH (1:2, v/v).

DIO mouse model [2] = assay: Example 2: low and intermittent dosing in DIO mouse model; assay type: in vivo, C57/BL6J mice; conditions: 2 mg/kg p.o., 3 days a week, vs control
Excerpt: The aim of this study is to determine the effect of a low and intermittent dosing regime of ulodesine hemi glutarate on the following parameters: weight gain, food intake, fasting blood glucose concentration, serum insulin, serum cholesterol, plasma liver enzymes aspartate aminotransferase (AST) and alanine transaminase (ALT), inguinal white adipose tissue (iWAT), BAT; inosine in plasma and NAD+ in whole blood, and expression of lipogenesis (fatty acid synthesis) markers in iWAT and thermogenic markers in BAT. The study will assess ulodesine hemi glutarate efficacy on the listed parameters in the DIO mouse model of obesity and metabolic dysfunction.
Method: C57/BL6J mice were fed obesogenic diet D12492 (60 kcal % fat) from age 6 weeks. Nineteen week old mice (approximately 50 g) were either treated with vehicle (control) or ulodesine hemi glutarate at 2 mg/kg for 3 days a week (days 1, 2 and 3), given orally, over a 28 day period. On day minus 2 and on day 28, animals were fasted for 6 hr (only food withdrawn) and blood was collected for both blood glucose and cholesterol. On day 28 plasma liver enzymes (AST and ALT) and insulin were determined and additional plasma and whole blood was frozen and used for inosine and NAD+ measurement. BAT and iWAT was collected at the end of the study, weighed and quantitative PCR was performed for the lipogenesis markers Stearoyl CoA desaturase 1 (SCD-1) and fatty acid synthetase (FAS) and the thermogenesis marker uncoupling protein 1 (UCP-1). Inosine and NAD+ levels in stored plasma and whole blood respectively were determined by LC/MS/MS.

DIO mouse model [3] = assay: Example 3: liver parameters in DIO mouse model; assay type: in vivo, C57/BL6J mice; conditions: 2 mg/kg p.o., 3 days a week, 8 weeks
Excerpt: The aim of this study is to determine the effect of low and intermittent dosing of ulodesine hemi glutarate on the liver parameters: liver weight, total cholesterol, triglycerides, AST and ALT. The study assessed ulodesine hemi glutarate efficacy on the listed parameters in the DIO mouse model of obesity and metabolic dysfunction.
Method: C57/BL6J mice were fed obesogenic diet D12492 (60 kcal % fat) from age 6 weeks. Eighteen weeks old mice (approximately 40 g) were either treated with vehicle (control) or ulodesine hemi glutarate at 2 mg/kg for 3 days a week (days 1, 2 and 3) given orally for 8 weeks. At the end of eight weeks, the liver was removed and the following parameters were assessed: total cholesterol, triglycerides, AST and ALT.

Diet induced obese mice = conditions: cited from earlier work
brown adipocytes = conditions: via cAMP/protein kinase A signalling pathway; cited from earlier work
[4] = Approximate solubility of starting material at RT; assay type: physicochemical; conditions: RT (~27 °C)
Method: The solubility of starting material (E0007-A01-02) was estimated at RT (~27 °C).
Specifically, approximate 2 mg of solid was added into an HPLC glass vial. The solvents below were then added stepwise ([…]) into the vials until the solids were dissolved or a total volume of 1.0 mL was reached.
The solubility data were used to guide the solvent selection in polymorph screening. Approximate solubility of starting material (E0007-A01-02) at RT: […]

[5] = Drying stability (vacuum, RT/50/70 °C); assay type: physicochemical
[6] = Hygroscopicity by DVS at 25 °C; assay type: physicochemical
Method: To understand the hygroscopicity of glutarate type A, DVS was employed to measure the mass change as a function of relative humidity at 25 °C (FIG. 14).
Dynamic vapour sorption was performed with ADVENTURE series DVS and Intrinsic-1 DVS at 25 °C under nitrogen blow. Approximately 30 milligrams of material were used. Anhydrate was analyzed using methods below: 0% RH to 95% RH to 0% RH at 10% RH (5% RH from 90% RH to 95% RH to 90% RH). After equilibrium at ambient conditions (50% RH), the hydrate sample was analyzed using method below: 1. Ambient relative humidity to 95% RH at 10% RH (5% from 90% RH to 95% RH). 2. 95% RH to 0% RH at 10% RH (5% from 95% RH to 90% RH). 3. 0% RH to 95% RH at 10% RH (5% RH from 90% RH to 95% RH).
The moisture sorption profile was generated at 25 °C using a DVS moisture balance flow system (Model Advantage 1.0) with the following conditions: sample size approximately 10 mg, drying 25 °C for 60 minutes, adsorption range 0% to 95% RH, desorption range 95% to 0% RH, and step interval 5%. The equilibrium criterion was <0.01% weight change in 5 minutes for a maximum of 120 minutes.

[7] = Kinetic solubility (37 °C/24 h); assay type: physicochemical
[8] = Physicochemical stability (2-week, open conditions)
[9] = as above; conditions: for remaining at 336 h: 2-week; for remaining at 336 h / remaining at 240 h: read-out: Purity; for remaining at 240 h: 10-day
Excerpt: SHIMADZU LC-20AD was employed to detect the chemical purity HPLC method for purity test

In the case of `O=c1[nH]cnc2c(CN3C[C@H](CO)[C@@H](O)C3)c[nH]c12` [Glutarate Type B], the “form conversion on cooling back to RT” value ([1]; after heating to 130 °C, cooled to RT) was “quickly converted to glutarate Type A” and the solid form stability ([1]; ambient condition) was “meta-stable form at ambient condition”.

With `O=c1[nH]cnc2c(CN3C[C@H](CO)[C@@H](O)C3)c[nH]c12` [Glutarate Type C] the “form change after heating to 110 °C” value ([1]; 110 °C) was “no form change”, the “form change after drying” value ([1]; RT overnight) was “no form change” and the “Form change after heating” value ([1]; after heating) was “No”. For the same compound, the “stability compared with glutarate Type A” value ([1]; drying under ambient condition) was “lower stability compared with glutarate Type A”, the “form conversion after drying under ambient condition” value ([1]; wet cakes from screening, ~25 °C/30% RT) was “(partially) converted to glutarate Type A” and the “form conversion after drying under ambient condition” value ([1]; wet cakes, ~6 h (~20 °C/32% RH)) was “converted to glutarate Type A”.

For `O=c1[nH]cnc2c(CN3C[C@H](CO)[C@@H](O)C3)c[nH]c12` [ulodesine], the blood glucose (DIO mouse model [2]; 28 days) was “decreases”, the iWAT/Body weight % (DIO mouse model [2]; 28 days) was “significant decrease” and the plasma cholesterol (DIO mouse model [2]; 28 days) was “decreases”. The insulin levels (DIO mouse model [2]; day 28) was “decreases”, the “plasma ALT” value (DIO mouse model [2]; day 28) was “decreases” and the “plasma AST” value (DIO mouse model [2]; day 28) was “decreases”. For the same compound, the “liver ALT” value (DIO mouse model [3]) was “decreases in triglycerides and ALT with treatment they did not achieve statistical significance”, the “liver AST” value (DIO mouse model [3]) was “significant decrease” and the “liver total cholesterol (TC)” value (DIO mouse model [3]) was “significant decrease”. The liver triglycerides (DIO mouse model [3]) was “decreases in triglycerides and ALT with treatment they did not achieve statistical significance”.

In the case of `OC[C@H]1O[C@@H](n2cnc3c(O)ncnc32)[C@H](O)[C@@H]1O` [inosine], the weight (Diet induced obese mice; diet induced obese mice, daily for 26 days, vs vehicle) is listed as “significant reduction in weight”, the “BAT dependent energy expenditure” value (Diet induced obese mice; mice) is listed as “increased BAT dependent energy expenditure” and the “browning of white adipose tissue” value (Diet induced obese mice; mice) is listed as “induced browning of white adipose tissue”. The “energy expenditure in brown adipocytes” value (brown adipocytes) was “stimulates energy expenditure”.

With `O=c1[nH]cnc2c(CN3C[C@H](CO)[C@@H](O)C3)c[nH]c12` [Glutarate Type A] the solubility ([4]; H2O) was > 36000 µg/mL, the solubility ([4]; organic solvent or mixture, 1,4-Dioxane) was < 2000 µg/mL and the solubility ([4]; organic solvent or mixture, 2-MeTHF) was < 1900 µg/mL. For the same compound, the solubility ([4]; organic solvent or mixture, ACN) was < 1900 µg/mL, the solubility ([4]; organic solvent or mixture, Acetone/H2O (9:1)) was < 1900 µg/mL and the solubility ([4]; organic solvent or mixture, Acetone) was < 2100 µg/mL. The solubility ([4]; organic solvent or mixture, CPME) was < 1900 µg/mL, the solubility ([4]; organic solvent or mixture, DCM/MeOH (1:1)) was < 1900 µg/mL and the solubility ([4]; organic solvent or mixture, DCM) was < 1800 µg/mL. For the same compound, the solubility ([4]; organic solvent or mixture, DMAc) was 2000 to 6500 µg/mL (≈ 7.57 to 24.6 mM), the solubility ([4]; organic solvent or mixture, DMF) was 2300 to 7600 µg/mL (≈ 8.7 to 28.8 mM) and the solubility ([4]; organic solvent or mixture, DMSO) was > 39600 µg/mL. For the same compound, the solubility ([4]; organic solvent or mixture, EtOAc) was < 2100 µg/mL, the solubility ([4]; organic solvent or mixture, EtOH/H2O (2:1)) was 22600 to 45200 µg/mL (≈ 85.5 to 171 mM) and the solubility ([4]; organic solvent or mixture, EtOH/H2O (4:1)) was 2100 to 6900 µg/mL (≈ 7.95 to 26.1 mM). For the same compound, the solubility ([4]; organic solvent or mixture, EtOH/H2O (9:1)) was < 2000 µg/mL, the solubility ([4]; organic solvent or mixture, EtOH) was < 2100 µg/mL and the solubility ([4]; organic solvent or mixture, IPA) was < 1800 µg/mL. For the same compound, the solubility ([4]; organic solvent or mixture, IPAc) was < 2000 µg/mL, the solubility ([4]; organic solvent or mixture, MEK) was < 1900 µg/mL and the solubility ([4]; organic solvent or mixture, MIBK) was < 1800 µg/mL. For the same compound, the solubility ([4]; organic solvent or mixture, MTBE) was < 2000 µg/mL, the solubility ([4]; organic solvent or mixture, MeOH) was 1900 to 6500 µg/mL (≈ 7.19 to 24.6 mM) and the solubility ([4]; organic solvent or mixture, NMP) was 1900 to 6300 µg/mL (≈ 7.19 to 23.8 mM). The solubility ([4]; organic solvent or mixture, THF/H2O (9:1)) was < 2000 µg/mL, the solubility ([4]; organic solvent or mixture, THF) was < 2000 µg/mL and the solubility ([4]; organic solvent or mixture, Toluene) was < 1900 µg/mL. For the same compound, the solubility ([4]; organic solvent or mixture, n-Heptane) was < 2000 µg/mL, the “change in crystallinity on vacuum drying” value ([5]; 70 °C) was “slight decrease” and the “change in crystallinity on vacuum drying” value ([5]; overnight, 50 °C) was “no change in crystallinity”. The “change in crystallinity on vacuum drying” value ([5]; overnight, RT) was “no change in crystallinity”, the water uptake ([6]; 25 °C/80% RH) was 1.1% and the hygroscopicity ([6]; 25 °C/80% RH, in words) was “slightly hygroscopic”. The water uptake ([6]; 25 °C/95% RH) was 10.4%, the “form change after DVS” value ([6]; XRPD after DVS) was “no form change” and the solubility kinetic at 24 h ([7]; FaSSIF) was > 16800 µg/mL. For the same compound, the solubility kinetic at 24 h ([7]; FeSSIF) was > 16800 µg/mL, the solubility kinetic at 24 h ([7]; SGF) was > 16800 µg/mL and the solubility kinetic at 24 h ([7]; water) was > 16800 µg/mL. The “solid-state properties and stability” value ([1]; polymorph screening overall) was “good solid-state properties and stability”, the Form change ([8]; 2-week, 25 °C/60% RH) was “No” and the Form change ([8]; 2-week, 40 °C/75% RH) was “No”. For the same compound, the Form change ([8]; 2-week, 60 °C) was “No”, the Form change ([8]; 10-day, 25 °C/60% RH) was “No” and the Form change ([8]; 10-day, 40 °C/75% RH) was “No”. For the same compound, the Form change ([8]; 10-day, 60 °C) was “No”, the remaining at 336 h ([9]; 25 °C/60% RH) was 97.8% and the remaining at 336 h ([9]; 40 °C/75% RH) was 97.7%. It also gave a remaining at 336 h ([9]; 60 °C) of 97.3%, a remaining at 240 h ([9]; 25 °C/60% RH) of 97.7% and a remaining at 240 h ([9]; 40 °C/75% RH) of 97.8%. It also gave a remaining at 240 h ([9]; 60 °C) of 97.6% and an Initial purity ([9]; initial) of 97.9 area %.

From patent US20260364078A1, “PURINE NUCLEOSIDE PHOSPHORYLASE INHIBITORS FOR THE TREATMENT OF METABOLIC SYNDROME AND ASSOCIATED CONDITIONS” (METASHAPE PHARMA AG, priority 2022, published 2026)
